Reference: ChEMBL document CHEMBL1142326, “2-Amino-N-pyrimidin-4-ylacetamides as A2A receptor antagonists: 1. Structure-activity relationships and optimization of heterocyclic substituents” (J Med Chem, 2008)

Columns and labels:
Adenosine receptor A2a [1] = target: T1, Adenosine receptor A2a (Homo sapiens, UniProt P29274); test: Displacement of [3H]ZM241385 from human adenosine A2A receptor expressed in HEK293 cells; type: cell-based
Adenosine receptor A1 = target: T2, Adenosine receptor A1 (Homo sapiens, UniProt P30542); test: Displacement of [3H]DPCPX from human adenosine A1 receptor expressed in HEK293 cells; type: cell-based
T2 sequence (P30542 whole entry): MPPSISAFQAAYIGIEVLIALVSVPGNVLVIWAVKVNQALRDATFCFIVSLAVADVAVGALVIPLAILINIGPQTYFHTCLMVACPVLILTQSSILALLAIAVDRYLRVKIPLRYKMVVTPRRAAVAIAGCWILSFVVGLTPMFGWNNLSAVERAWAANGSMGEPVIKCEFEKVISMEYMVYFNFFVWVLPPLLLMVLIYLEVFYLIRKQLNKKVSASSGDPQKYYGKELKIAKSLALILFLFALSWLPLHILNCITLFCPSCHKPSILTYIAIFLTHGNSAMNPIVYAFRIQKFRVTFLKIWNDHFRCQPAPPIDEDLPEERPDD

Cytochrome P450 3A4 = Cytochrome P450 3A4 (Homo sapiens, UniProt P08684); test: Inhibition of CYP3A4; type: ADME
Cytochrome P450 3A4, sequence (P08684 whole entry): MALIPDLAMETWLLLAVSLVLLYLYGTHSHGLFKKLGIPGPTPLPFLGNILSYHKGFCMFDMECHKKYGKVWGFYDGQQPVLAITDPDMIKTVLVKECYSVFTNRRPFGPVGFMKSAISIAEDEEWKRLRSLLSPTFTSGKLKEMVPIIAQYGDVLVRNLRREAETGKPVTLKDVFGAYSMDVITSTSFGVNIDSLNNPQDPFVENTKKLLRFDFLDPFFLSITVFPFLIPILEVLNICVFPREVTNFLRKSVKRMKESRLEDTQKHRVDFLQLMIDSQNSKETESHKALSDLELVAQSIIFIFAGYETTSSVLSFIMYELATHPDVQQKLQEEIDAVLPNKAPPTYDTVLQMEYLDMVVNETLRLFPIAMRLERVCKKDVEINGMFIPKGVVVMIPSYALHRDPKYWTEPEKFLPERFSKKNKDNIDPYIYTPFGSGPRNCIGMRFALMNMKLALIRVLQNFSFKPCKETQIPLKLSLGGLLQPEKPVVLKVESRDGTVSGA

Adenosine receptor A2a [2] = target: T1, Adenosine receptor A2a; test: Antagonist activity at human adenosine A2A receptor by cAMP assay; type: functional

T1 sequence (P29274 whole entry): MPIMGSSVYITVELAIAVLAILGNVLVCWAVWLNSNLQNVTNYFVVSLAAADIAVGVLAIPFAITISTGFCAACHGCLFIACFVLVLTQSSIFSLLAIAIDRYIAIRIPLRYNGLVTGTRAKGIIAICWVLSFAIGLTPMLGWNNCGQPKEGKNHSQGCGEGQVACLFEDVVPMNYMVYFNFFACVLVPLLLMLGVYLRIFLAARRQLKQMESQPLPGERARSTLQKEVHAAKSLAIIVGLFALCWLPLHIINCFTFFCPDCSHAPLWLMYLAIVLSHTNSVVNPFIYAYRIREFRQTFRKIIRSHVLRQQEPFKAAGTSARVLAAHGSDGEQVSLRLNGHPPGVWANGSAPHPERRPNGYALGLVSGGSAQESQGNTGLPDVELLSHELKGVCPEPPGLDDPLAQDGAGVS

| SMILES | Ki (Adenosine receptor A2a [1]) [nM] | Ki (Adenosine receptor A1) [nM] | IC50 (Cytochrome P450 3A4) [nM] | IC50 (Adenosine receptor A2a [2]) [nM] |
| --- | --- | --- | --- | --- |
| CN1CCN(CC(=O)Nc2cc(-c3ccccn3)nc(-c3cccs3)n2)CC1 | 24 | 389 |  |  |
| Cc1cc(C)n(-c2cc(NC(=O)CN3CCN(C)CC3)nc(-c3ccc(C)o3)n2)n1 | 12 | 850 |  |  |
| CN1CCN(CC(=O)Nc2cc(-n3cccn3)nc(-n3cccn3)n2)CC1 | 131 | 4200 |  |  |
| Cc1cc(C)n(-c2nc(NC(=O)CN3CCN(C)CC3)cc(-c3nccs3)n2)n1 | 27 | 1700 |  |  |
| Cc1cc(C)n(-c2cc(NC(=O)CN3CCN(C)CC3)nc(-c3nccs3)n2)n1 | 9 | 2000 | 13000 |  |
| CN1CCN(CC(=O)Nc2cc(-n3cccn3)nc(-c3nccs3)n2)CC1 | 17 | 850 |  |  |
| Cc1ccc(-c2nc(NC(=O)CN3CCN(C)CC3)cc(-c3nccs3)n2)o1 | 51 | 720 |  |  |
| Cc1ccc(-c2nc(NC(=O)CN3CCN(C)CC3)cc(-n3nccc3C)n2)o1 | 14 | 390 |  |  |
| Cc1cc(C)n(-c2nc(NC(=O)CN3CCN(C)CC3)cc(-c3ocnc3C)n2)n1 | 190 | > 10000 |  |  |
| CN1CCN(CC(=O)Nc2cc(-c3nccs3)nc(-c3ccco3)n2)CC1 |  |  |  | 103 |
| Cc1cc(C)n(-c2nc(NC(=O)CN3CCN(C)CC3)cc(-c3cnco3)n2)n1 | 1000 | > 10000 |  |  |
| Cc1ccc(-c2nc(NC(=O)CN3CCN(C)CC3)cc(-n3cccn3)n2)o1 | 135 | 850 |  |  |
| Cc1cc(C)n(-c2cc(NC(=O)CN3CCN(C)CC3)nc(-c3ccccn3)n2)n1 | 25.5 | 4400 |  |  |
| CN1CCN(CC(=O)Nc2cc(-n3cccn3)nc(-c3ccccn3)n2)CC1 | 53.4 | 930 |  |  |
